# Measured values from patent publication US9765087B2, “Benzimidazole derivatives” (ENANTA PHARMACEUTICALS, INC., priority 2009, dated 2017).
# Tested on: HCV 1b genotype replicon
# Test: HCV replicon assay (qRT-PCR or luciferase), genotype 1b
# Format: cell-based
# Conditions: Hepatitis C virus, Table 11, qRT-PCR or luciferase assay, read-out: Genotype-1b replicon EC50 Range
# From the text: HCV replicon cell lines (kindly provided by R. Bartenschlager) isolated from colonies as described by Lohman et. al. (Lohman et al. (1999) Science 285: 110-113, expressly incorporated by reference in its entirety) and used for all experiments. The HCV replicon has the nucleic acid sequence set forth in EMBL Accession No.: AJ242651, the coding sequence of which is from nucleotides 1801 to 8406.
# The coding sequence of the published HCV replicon was synthesized and subsequently assembled in a modified plasmid pBR322 (Promega, Madison, Wis.) using standard molecular biology techniques. One replicon cell line (“SGR 11-7”) stably expresses HCV replicon RNA which consists of (i) the HCV 5′UTR fused to the first 12 amino acids of the capsid protein, (ii) the neomycin phosphotransferase gene (neo), (iii) the IRES from encephalomyocarditis virus (EMCV), and (iv) HCV […] to NSSB genes and the HCV 3′UTR. Another replicon cell line (“Huh-luc/neo-ET”) described by Vrolijk et. al. (Vrolijk et. al. (2003) Journal of Virological Methods 110:201-209, expressly incorporated by reference in its entirety) stably expresses HCV replicon RNA which consists of (i) the HCV 5′UTR fused to the first 12 amino acids of the capsid protein, (ii) the firefly luciferase reporter gene, (iii) the ubiquitin gene, (iv) the neomycin phosphotransferase gene (neo), (v) the IRES from encephalomyocarditis virus (EMCV), and (vi) HCV NS3 to NS5B genes that harbor cell culture adaptive mutations (E1202G, T1280I, K1846T) and the HCV 3′UTR.
# These cell lines were maintained at 37° C., 5% CO2, 100% relative humidity in DMEM (Cat#11965-084, Invitrogen), with 10% fetal calf serum (“FCS”, Invitrogen), 1% non-essential amino acids (Invitrogen), 1% of Glutamax (Invitrogen), 1% of 100× penicillin/streptomycin (Cat#15140-122, Invitrogen) and Geneticin (Cat#10131-027, Invitrogen) at 0.75 mg/ml or 0.5 mg/ml for 11-7 and Huh-luc/neo-ET cells, respectively.
# EC50 values of single agent compounds and combinations were determined by HCV RNA detection using quantitative RT-PCR, according to the manufacturer's instructions, with a TAQMAN® One-Step RT-PCR Master Mix Reagents Kit (Cat#AB 4309169, Applied Biosystems) on an ABI Model 7500 thermocycler. The TaqMan primers used for detecting and quantifying HCV RNA were obtained from Integrated DNA Technologies. HCV RNA was normalized to GAPDH RNA levels in drug-treated cells, which is detected and quantified using the Human GAPDH Endogenous Control Mix (Applied Biosystems, AB 4310884E). Total cellular RNA is purified from 96-well plates using the RNAqueous 96 kit (Ambion, Cat# AM1812). Chemical agent cytotoxicity is evaluated using an MTS assay according to the manufacturer's directions (Promega).
# Since clinical drug resistance often develops in viral infections following single agent therapies, there is a need to assess the additive, antagonistic, or synergistic properties of combination therapies. We used the HCV replicon system to assess the potential use of the compound of the present invention or in combination therapies with Interferon alpha, cyclosporine analogs and inhibitors targeting other HCV proteins. The acute effects of a single or combinations of drugs are studied in the “Huh-luc/neo-ET” replicon with each chemical agent titrated in an X or Y direction in a 6 point two-fold dilution curve centered around the EC50 of each drug. Briefly, replicon cells are seeded at 7,000 cells per well in 90 ul DMEM (without phenol red, Invitrogen Cat.#31053-036) per well with 10% FCS, 1% non-essential amino acids, 1% of Glutamax and 1% of 100× penicillin/streptomycin and incubated overnight at 37° C., 5% CO2, 100% relative humidity. […]
row,SMILES,EC50 [nM]
1,COC(=O)N[C@H](C(=O)N1CCC[C@H]1c1ncc(-c2ccc(C#Cc3ccc4nc([C@]5(Cc6ccccc6)CCCN5C(=O)[C@@H](NC(=O)OC)C(C)C)[nH]c4c3)cc2)[nH]1)C(C)C [Example 536],< 1
2,CCC(NC(=O)OC)(C(=O)N1CCC[C@H]1c1nc2ccc(C#Cc3ccc(-c4cnc([C@@H]5CCCN5C(=O)[C@@H](NC(=O)OC)C(C)C)[nH]4)cc3)cc2[nH]1)c1ccccc1 (some centres unmarked) [Example 532],< 1
3,COC(=O)N[C@@H](C(=O)N1CCC[C@H]1c1nc(-c2ccc(/C=C/c3ccc4[nH]c([C@@H]5CCCN5C(=O)[C@H](NC(=O)OC)c5ccccc5)nc4c3)cc2)c[nH]1)c1ccccc1 [Example 357],< 1
4,COC(=O)N[C@H](C(=O)N1CCC[C@H]1c1ncc(-c2ccc(C#Cc3ccc4nc([C@@H]5C[C@@H](Oc6ccccc6)CN5C(=O)[C@@H](NC(=O)OC)C(C)C)[nH]c4c3)cc2)[nH]1)C(C)C [Example 537],< 1
5,COC(=O)N[C@H](C(=O)N1CCC[C@H]1c1nc2cc(C#Cc3ccc(-c4c[nH]c([C@@H]5CCCN5C(=O)[C@@H](c5ccccc5)C(C)C)n4)cc3)ccc2[nH]1)C(C)C [Example 512],< 1
6,COC(=O)N[C@H](C(=O)N1CCC[C@H]1c1nc(-c2ccc3cc(-c4ccc5[nH]c([C@@H]6CCCN6C(=O)[C@@H](NC(=O)OC)[C@@H](C)OC)nc5c4)ccc3c2)c[nH]1)[C@@H](C)OC [Example 460],< 1
7,COC(=O)N[C@H](C(=O)N1CCC[C@H]1c1ncc(-c2ccc([C@H]3C[C@@H]3c3ccc4nc([C@@H]5CCCN5C(=O)[C@@H](NC(=O)OC)C(C)C)[nH]c4c3)cc2)[nH]1)C(C)C [Example 497-a],< 1
8,C=C(c1ccc(-c2c[nH]c([C@@H]3CCCN3C(=O)[C@@H](NC(=O)OC)C(C)C)n2)cc1)c1ccc2nc([C@@H]3CCCN3C(=O)[C@@H](NC(=O)OC)C(C)C)[nH]c2c1 [Example 493],< 1
9,COC(=O)N[C@H](C(=O)N1CCC[C@H]1c1nc(-c2ccc(C#Cc3ccc4[nH]c([C@@H]5CCCN5C(=O)[C@@H](c5ccccc5)C(C)C)nc4c3)cc2)c[nH]1)C(C)C [Example 507],< 1
10,COC(=O)N[C@H](C(=O)N1CCC[C@H]1c1ncc(-c2ccc(C#Cc3ccc4nc([C@@H]5C[C@H](Oc6ccccc6)CN5C(=O)[C@@H](NC(=O)OC)C(C)C)[nH]c4c3)cc2)[nH]1)C(C)C [Example 538],< 1
11,COC(=O)N[C@H](C(=O)N1CCC[C@H]1c1nc(-c2ccc3cc(/C=C/c4ccc5[nH]c([C@@H]6CCCN6C(=O)[C@@H](NC(=O)OC)C(C)C)nc5c4)ccc3c2)c[nH]1)C(C)C [Example 477],< 1
12,COC(=O)N[C@H](C(=O)N1CC2(CC2)C[C@H]1c1nc(-c2ccc(C#Cc3ccc4[nH]c([C@@H]5CCCN5C(=O)[C@@H](NC(=O)OC)C(C)C)nc4c3)cc2)c[nH]1)C(C)C [Example 523],< 1
13,COC(=O)N[C@H](C(=O)N1CCC[C@H]1c1nc(-c2ccc(C#Cc3ccc4[nH]c([C@@H]5CCCN5C(=O)[C@@H](NC(=O)OC)C(C)C)nc4c3)cc2)c[nH]1)c1ccccc1 [Example 514],< 1
14,COC(=O)N[C@H](C(=O)N1CCC[C@H]1c1nc(-c2ccc3cc(-c4cc5nc([C@@H]6CCCN6C(=O)[C@@H](NC(=O)OC)C(C)C)[nH]c5cc4Cl)ccc3c2)c[nH]1)C(C)C [Example 490],< 1
15,COC(=O)N[C@H](C(=O)N1CCC[C@H]1c1nc(-c2ccc(C#Cc3ccc4[nH]c([C@@H]5CCCN5C(=O)[C@@H](NC(=O)OC)[C@@H](C)OC)nc4c3)cc2)c[nH]1)[C@@H](C)OC [Example 473],< 1
16,COC(=O)N[C@H](C(=O)N1CCC[C@H]1c1nc(-c2ccc(CCCc3ccc4[nH]c([C@@H]5CCCN5C(=O)[C@@H](NC(=O)OC)C(C)C)nc4c3)s2)c[nH]1)C(C)C [Example 457],< 1
17,COC(=O)N[C@H](C(=O)N1CCC[C@H]1c1nc(-c2ccc(/C=C/c3ccc4[nH]c([C@@H]5CCCN5C(=O)[C@@H](NC(=O)OC)C(C)C)nc4c3)cc2)c[nH]1)C(C)C [Example 492],< 1
18,COC(=O)N[C@H](C(=O)N1CCC[C@H]1c1nc2cc(C#Cc3ccc(-c4c[nH]c([C@@H]5CCCN5C(=O)[C@@H](NC(=O)OC)C(C)C)n4)cc3)ccc2[nH]1)c1ccccc1 [Example 509],< 1
19,COC(=O)N[C@H](C(=O)N1CC2(CC2)C[C@H]1c1nc(-c2ccc(C#Cc3ccc4[nH]c([C@@H]5CC6(CC6)CN5C(=O)[C@@H](NC(=O)OC)C(C)C)nc4c3)cc2)c[nH]1)C(C)C [Example 525],< 1
20,COC(=O)N[C@H](C(=O)N1CCC[C@H]1c1ncc(-c2ccc(C#Cc3ccc4nc([C@@H]5CCCN5C(=O)[C@@H](NC(=O)OC)[C@H](C)O)[nH]c4c3)cc2)[nH]1)C(C)C [Example 531],< 1
21,COC(=O)N[C@H](C(=O)N1CCC[C@H]1c1nc2cc(C#Cc3ccc(-c4c[nH]c([C@@H]5CCCN5C(=O)[C@@H](NC(C)=O)C(C)C)n4)cc3)ccc2[nH]1)C(C)C [Example 511],< 1
22,COC(=O)N[C@H](C(=O)N1CCC[C@H]1c1nc(CCc2ccc3cc(-c4ccc5[nH]c([C@@H]6CCCN6C(=O)[C@@H](NC(=O)OC)C(C)C)nc5c4)ccc3c2)c[nH]1)C(C)C [Example 472],< 1
23,COC(=O)N[C@H](C(=O)N1CCC[C@H]1c1nc(CCc2ccc(-c3ccc4[nH]c([C@@H]5CCCN5C(=O)[C@@H](NC(=O)OC)C(C)C)nc4c3)cc2)c[nH]1)C(C)C [Example 469],< 1
24,COC(=O)N[C@H](C(=O)N1CCC[C@H]1c1nc(-c2ccc3cc(-c4ccc5[nH]c([C@@H]6CCCN6C(=O)[C@H](NC(=O)OC)c6ccccc6)nc5c4)ccc3c2)c[nH]1)[C@@H](C)OC [Example 463],< 1

# Same assay, conditions: Hepatitis C virus, Table 12, numeric values, read-out: 1b EC50
row,SMILES,EC50 [nM]
1,COC(=O)N[C@H](C(=O)N1CCC[C@H]1c1ncc(-c2ccc(C#Cc3ccc4nc([C@@H]5C[C@]6(CC(C)=NO6)CN5C(=O)[C@@H](NC(=O)OC)C(C)C)[nH]c4c3)cc2)[nH]1)C(C)C [Example 554],0.028
2,COC(=O)N[C@H](C(=O)N1CCC[C@H]1c1ncc(-c2ccc(C#Cc3ccc4nc([C@@H]5C[C@@]6(CC=CCO6)CN5C(=O)[C@@H](NC(=O)OC)C(C)C)[nH]c4c3)cc2)[nH]1)C(C)C [Example 563],0.012
3,COC(=O)N[C@H](C(=O)N1CC2(CC2)C[C@H]1c1nc2cc(C#Cc3ccc(-c4coc([C@@H]5CC6(CC6)CN5C(=O)[C@@H](NC(=O)OC)C(C)C)n4)cc3)ccc2[nH]1)C(C)C [Example 577],0.16
4,COC(=O)N[C@H](C(=O)N1C[C@@H](C)C[C@H]1c1ncc(-c2ccc(C#Cc3ccc4nc([C@@H]5C[C@@]6(CCCO6)CN5C(=O)[C@@H](NC(=O)OC)C(C)C)[nH]c4c3)cc2)[nH]1)C(C)C [Example 559],0.014
5,COC(=O)N[C@H](C(=O)N1CC2(CC2)C[C@H]1c1nc2cc(C#Cc3ccc(-c4cn(O)c([C@@H]5CC6(CC6)CN5C(=O)[C@@H](NC(=O)OC)C(C)C)n4)cc3)ccc2[nH]1)C(C)C [Example 571],0.013
6,COC(=O)N[C@H](C(=O)N1CC2(CC2)C[C@H]1c1ncc(-c2ccc(C#Cc3ccc4nc([C@@H]5CC6(CC6)CN5C(=O)[C@H](NC(=O)OC)c5ccccc5)[nH]c4c3)cc2)[nH]1)C(C)C [Example 578],0.006
7,COC(=O)N[C@H](C(=O)N1CCC[C@H]1c1ncc(-c2ccc3cc(-c4ccc5nc([C@@H]6C[C@H](C7CC7)CN6C(=O)[C@@H](NC(=O)OC)C(C)C)[nH]c5c4)ccc3c2)[nH]1)C(C)C [Example 642],0.007

# Same assay, conditions: Hepatitis C virus, Table 12, range class, read-out: 1b EC50 Range
row,SMILES,EC50 [nM]
1,COC(=O)N[C@H](C(=O)N1CC(C)(C)C[C@H]1c1ncc(-c2ccc(C#Cc3ccc4nc([C@@H]5C[C@@]6(CCCO6)CN5C(=O)[C@@H](NC(=O)OC)C(C)C)[nH]c4c3)cc2)[nH]1)C(C)C [Example 560],< 1
